The values below come from PMC5663397, “A composite docking approach for the identification and characterization of ectosteric inhibitors of cathepsin K” (PLoS ONE, 2017).

The IC50 is the midpoint of a concentration-inhibition curve. As a reminder, the inhibition is the share of the control response that was lost under treatment. The low end stands for a weak effect, the high end for a strong effect.

Data set [1] deals with T1, CatK (Homo sapiens, UniProt P43235).
T1 construct: made in house; host or cells: Pichia pastoris
T1 sequence (P43235 115-329): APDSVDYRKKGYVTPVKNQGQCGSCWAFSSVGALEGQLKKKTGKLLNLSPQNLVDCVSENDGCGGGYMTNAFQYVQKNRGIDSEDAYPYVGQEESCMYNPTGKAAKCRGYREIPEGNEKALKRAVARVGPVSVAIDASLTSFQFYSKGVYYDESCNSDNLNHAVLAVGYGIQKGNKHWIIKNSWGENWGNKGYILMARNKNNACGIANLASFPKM
Nature of the data set: CatK collagenase assay (type I collagen degradation, SDS-PAGE). In kind it is biochemical. As to the method: The collagenase inhibitory activities of all identified compounds were measured using a collagen degradation assay. Soluble bovine type I collagen (0.6 mg/mL) was incubated with 400 nM recombinant human CatK, in the presence or absence of 200 nM chondroitin 4-sulfate (C4-S) in 100 mM sodium acetate buffer, pH 5.5, containing 2.5 mM dithiothreitol (DTT) (Sigma-Aldrich Canada, Oakville, Ontario, Canada) and 2.5 mM ethylenediametetraacetate (EDTA) (Sigma-Aldrich). In the experiments involving detergent to minimize inhibitor aggregation, 0.001% or 0.005% Triton X-100 was added to the buffer with the inhibitor. The recombinant human CatK was expressed in Pichia pastoris and purified as previously described. Selected compounds identified by molecular docking were ordered from the National Cancer Institute through the Developmental Therapeutics Program (Rockville, MD). All compounds were dissolved in DMSO as a 20 or […] stock. […] After incubation at 28°C for 4 hours, 1 μM of E-64 was added to block the residual activity of CatK.
(§1) Digestion with MMP-1 was performed in 50 mM Tris-HCl, pH 7.4, containing 200 mM NaCl and 5 mM CaCl2 at 28°C for 4 h. Reactions were stopped by adding 25 mM EDTA as previously described. Samples were analyzed using 10% SDS-PAGE gels and stained with Coomassie. The resulting bands of α-collagen chains were quantitatively assessed using ImageJ (Version 1.5) and IC50 graphs were plotted using GraphPad Prism (GraphPad Software, Version 5.0, La Jolla California USA).

In data set [2] the test system is Yeast. Also on record: method as in earlier work. The note with it: cited from earlier work.
Data set [3] concerns the target T2, MMP-1 (Homo sapiens, UniProt P03956).
T2 sequence (P03956 100-469): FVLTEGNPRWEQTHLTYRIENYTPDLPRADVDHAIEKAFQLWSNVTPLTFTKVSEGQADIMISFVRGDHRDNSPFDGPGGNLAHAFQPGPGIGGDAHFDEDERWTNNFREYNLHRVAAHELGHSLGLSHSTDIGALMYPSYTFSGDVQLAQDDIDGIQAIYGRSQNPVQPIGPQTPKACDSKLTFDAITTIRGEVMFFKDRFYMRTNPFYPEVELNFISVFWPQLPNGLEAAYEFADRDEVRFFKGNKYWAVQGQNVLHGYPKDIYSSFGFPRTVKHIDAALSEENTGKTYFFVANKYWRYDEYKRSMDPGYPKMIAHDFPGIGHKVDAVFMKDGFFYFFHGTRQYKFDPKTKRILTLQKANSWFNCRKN
In words: Gelatin degradation assay with MMP-1. The following applies: 50 μM inhibitor, 10 nM MMP-1. The format is biochemical. On the procedure:
Gelatin (0.6 mg/mL) degradation assays were performed in the same manner as the collagen degradation experiments with 10 nM enzyme and were incubated at 37°C for one hour at the appropriate pH values for the individual proteases (CatK, pH 5.5; MMP-1, pH 7.4; trypsin, pH 8.8).

The subject of data set [4] is human osteoclasts. In words: Human osteoclast bone resorption assay on bone slices. In kind it is cell-based. The note with it: for IC50: human osteoclasts on bone slices, read-out: IC50 for inhibition of trench eroded surface per bone surface (bone resorption). On the procedure:
(§2) Osteoclasts were generated from mononuclear cells isolated from human bone marrow tissue (Lonza, Walkersville, MD). The bone marrow cells were centrifuged at 400 g for 5 min and the pellet was re-suspended in 10 mL α-MEM (α-Minimal Essential Media) and layered on 10 ml Ficoll-Plaque media solution. After centrifugation at 500 g for 30 min, the white interface containing the monocytes was harvested and washed twice with α-MEM. Cells were cultured in α-MEM containing 10% FBS and 25 ng/mL M-CSF for 24 hours and then cultured in 25 ng/mL RANKL and 25 ng/mL M-CSF for 7 days. Differentiated osteoclasts (100,000 cells per slice) were then seeded on each bone slice (5.5 mm diameter and 0.4 mm thickness; self-made) in the presence or absence of inhibitors and incubated for 72 hours at 5% CO2 and 37°C with the DMSO concentration at 0.1%. The inhibitor concentration range tested varied between 50 nM to 3 μM.
(§3) To compare the effects of the compounds on cell survival, the metabolic activity of osteoclasts was determined using the CellTiter-Blue Viability Assay (Promega, Madison, WI, USA). Bone slices from each condition (inhibitor-treated and control groups) were fixed in 4% formaldehyde and subsequently stained for tartrate-resistant acid phosphatase (TRAcP) activity (Acid Phosphatase, Leukocyte (TRAP) Kit; Sigma-Aldrich). Aliquots from cell culture media were used to determine the CTx-I concentration (MyBiosource ELISA kit, San Diego, CA). CTx-I is a CatK-specific C-terminal cleavage product of triple helical type I collagen. The total number of osteoclasts per bone slice was determined after TRAcP staining. Cells with ≥2 nuclei were counted as osteoclasts. After 72 h, bone slices from each condition were incubated in filtered water for cell lysis and cells were removed using a cotton stick. Subsequently the resorption cavities were stained with toluidine blue and observed by light microscopy. The number of resorption events and eroded bone surface area were determined as previously described. All light microscopic analyses were performed using a Nikon Eclipse LV100 microscope and a Nikon Eclipse Ci microscope.

The subject of data set [5] is human osteoclasts. Nature of the data set: Osteoclast survival: CellTiter-Blue metabolic activity and osteoclast count after TRAcP staining. The format is cell-based. As to the method:
as §2, §3
On the technique in general: Alamar Blue is a resazurin reagent that responds to reducing activity.

Data set [6] concerns the target T1, CatK. In words: Z-Phe-Arg-MCA cleavage assay with CatK. In kind it is biochemical. The note with it: 100 μM inhibitor, 5 nM CatK, 5 μM substrate, pH 5.5. On the procedure: (§4) The enzymatic activity of CatK was monitored by measuring the rate of release of the fluorogenic group, amino-methyl coumarin at an excitation wavelength of 380 nm and an emission wavelength of 450 nm using a Molecular Devices SpectraMax Gemini spectrofluorometer. Inhibitors were added prior to measurement of enzyme activity. The assays were performed at 25°C at a fixed enzyme concentrations (5 nM) and substrate concentration (5 μM) in 100 mM sodium acetate buffer, pH 5.5, containing 2.5 mM DTT and 2.5 mM EDTA. Z-Phe-Arg-MCA hydrolysis with trypsin was carried out in 50 mM Tris-HCl, pH 8.8 at 10 nM enzyme concentration.

Data set [7] addresses T2, MMP-1. In words: Collagen digestion with MMP-1. In kind it is biochemical. The following applies: 50 μM inhibitor, 400 nM MMP-1. On the procedure: as §1
For data set [8], the system named is trypsin. Nature of the data set: Z-Phe-Arg-MCA hydrolysis with trypsin. In kind it is biochemical. The note with it: 50 μM (5,000-times molar excess). As to the method:
as §4, with “Evaluation of a potential active site inhibition of the compounds was performed using the fluorogenic Benzyloxycarbonyl-Phe-Arg-7-amido-4-methylcoumarin (Z-Phe-Arg-MCA) substrate (Bachem Americas, Inc, Torrance, California, USA) as previously described. The enzymatic” for “The enzymatic”

Data set [9] deals with human osteoclasts. The note with it: cited from earlier work.
The subject of data set [10] is ovariectomiced mice. Details: method as in PMID 28745432. The following applies: cited from earlier work.
Setting [11] is: 400 nM CatK, soluble bovine type I collagen 0.6 mg/mL, pH 5.5, 28°C, 4 h, read-out: Collagenase IC50.
[12] abbreviates: 1 μM inhibitor, 72 h, versus untreated.

Several values for one entry are separate records, joined by “and”; a condition that tells them apart may be missing. Equal values may be shown once. Entries after “also recorded” stand apart in the source; their conditions may differ. Where a name gives a salt, the structure may show the parent alone. Read-outs that look alike come from different tables or passages of the source. Bounds are passed on as bounds.

As for `CCc1cc2nc3c(=O)[nH]c(=O)nc-3n(CCN(CCO)CCO)c2cc1CC` [compound 1, 10-[2-[bis(2-hydroxyethyl)amino]ethyl]-7,8-diethylbenzo[γ]pteridine-2,4-dione], the half-inhibitory concentration (IC50) was < 20 µM and 4.7 µM and ~5 µM in [1] (setting [11]); 5.1 ± 1 µM in [1] (Collagenase IC50 with 0.005% Triton X-100, in the presence of detergent, 0.005% Triton X-100); around 0.3 µM in [4] (Homo sapiens, Osteoclast, 72 h, 72 h); 0.312 ± 0.063 µM in data set [4] (72 h). Also, the “Collagenase IC50 with 0.005% Triton X-100” value in data set [1] (in the presence of detergent, 0.005% Triton X-100) is “not significantly different”. Further, the “activity in NCI Yeast Anticancer Drug Screen” value in data set [2] is given as “active”. The “inhibitory activity for the gelatinase activity of MMP-1” value in [3] is “no inhibitory activity; also recorded: did not show inhibition”. Further, the Number of trenches result in [4] (setting [12]) is “significant reduction”. For the same molecule, in data set [4] (setting [12]), the “percentage of eroded surface area / total eroded surface” value is on record as “very effective in reducing the total eroded surface; also recorded: significant reduction”. Moreover, the “overall potency, times lower than odanacatib” value in data set [4] (osteoclast resorption assay, versus odanacatib) is reported as 15–20 times. Further, the “Metabolic activity of osteoclasts” value in data set [5] (CellTiter-Blue, compared with untreated cells) was “no significant differences”. In addition, in data set [5] (TRAcP staining, compared with untreated cells), the number of osteoclasts entry is “no significant differences”. The cell toxicity result in data set [5] (osteoclast bone resorption assays) was “no cell toxicity effects”. This molecule also displayed an inhibition at 100 µM in [6] of 9.5 ± 2.6%. The “inhibitory activity towards the collagenase activity of MMP-1” value in data set [7] is listed as “no inhibitory activity; also recorded: did not show inhibition”.

Regarding `CN(C)CCNc1ccc2ncn3c4ccc(O)cc4c(=O)c1c23` [compound 2, 2-((8-hydroxy-6-oxo-6H-imidazo[4,5,1-de]acridin-5-yl)amino)-N,N-dimethylethanaminium], the IC50 in data set [1] (setting [11]) was < 20 µM and 7.6 µM. The molecule further gave an inhibition at 100 µM in data set [6] of 6.1 ± 3.9%.

On to `CCc1nc2ccc(NCCN(C)C)c3c(=O)c4ccccc4n1c23` [compound 4, 5-(2-(dimethylamino)ethylamino)-1-ethyl-6H-imidazo[4,5,1-de]acridin-6-one], for which the IC50 in [1] (setting [11]) is < 20 µM and 9.9 µM. The same molecule returned an inhibition at 100 µM in data set [6] of 2.3 ± 0.9%.

As to `CCN(CC)CCNc1ccc2ncn3c4ccccc4c(=O)c1c23` [compound 5, 5-{[2-(diethylamino)ethyl]amino}-6H-imidazo[4,5,1-de]acridin-6-one hydrochloride (1:1)], in data set [1] (setting [11]), the IC50 is < 20 µM and 13 µM. In addition, in data set [6], the inhibition at 100 µM came out at 3.7 ± 0.7%.

For `Cc1c2c(c(O)c3c(O)cccc13)C(=O)C1(O)C(=O)C(C(N)=O)C(O)C(N(C)C)C1C2` (stereo not shown) [compound 6, 4-(dimethylamino)-3,10,11,12a-tetrahydroxy-6-methyl-1,12-dioxo-3,4,4a,5-tetrahydro-2H-tetracene-2-carboxamide], in data set [8], the “inhibition of Z-Phe-Arg-MCA degradation by trypsin” value is on record as 60%. In addition, the IC50 in [1] (setting [11]) was ~35 µM and 34.8 µM. In data set [6], this molecule came in with an inhibition at 100 µM of 11.5 ± 2.6%.

On to `O=C(Nc1cccc(C(=O)Nc2cccc(C3=NCCN3)c2)c1)Nc1cccc(C(=O)Nc2cccc(C3=NCCN3)c2)c1` [compound 8, N-[3-(4,5-dihydro-1H-imidazol-2-yl)phenyl]-3-[[3-[[3-(4,5-dihydro-1H-imidazol-2-yl)phenyl]carbamoyl]phenyl]carbamoylamino]benzamide hydrochloride], for which the IC50 in data set [1] (setting [11]) was 12.8 µM and < 20 µM. Further, the inhibition at 100 µM in data set [6] is 7.2 ± 3.6%.

As to `CCN(CC)CC1=C/C(=N/NC2=C3C=CC(=O)C(NNc4ccc(O)c(CN(CC)CC)c4)=C3C=CC2=O)C=CC1=O.Cl` [compound 9, 1-[2-[3-(diethylaminomethyl)-4-hydroxyphenyl]hydrazinyl]-5-[(2E)-2-[3-(diethylaminomethyl)-4-oxocyclohexa-2,5-dien-1-ylidene]hydrazinyl]naphthalene-2,6-dione hydrochloride], the IC50 in data set [1] (setting [11]) was below 20 µM. For the same molecule, in [2], the “activity in NCI Yeast Anticancer Drug Screen” value is “active”. The molecule further gave an inhibition at 100 µM in data set [6] of 3.2 ± 0.8%.

As to `CC1CN=C(c2cccc(NC(=O)c3ccc(C(=O)Nc4cccc(C5=NCC(C)N5)c4)c(N)c3)c2)N1` (stereo not shown) [compound 80116], the IC50 in [1] (setting [11]) came to 89 µM.

For `CSCCC(NCC(N)Cc1ccc2ccccc2c1)C(=O)NCc1cccc(C(=O)NC(CNC(CC(C)C)C(=O)O)Cc2ccccc2)c1` (stereo not shown) [compound 719315], the IC50 in data set [1] (setting [11]) turned out to be 88 µM.

Turning to `CC(C)(F)C[C@H](N[C@@H](c1ccc(-c2ccc(S(C)(=O)=O)cc2)cc1)C(F)(F)F)C(=O)NC1(C#N)CC1` [odanacatib], the IC50 in data set [9] (read-out: IC50 for human-osteoclast-mediated bone resorption) is 0.0146 µM.

With `Cc1c(S(=O)(=O)O)oc2c1C(=O)C(=O)c1c-2ccc2c1CCCC2(C)C` [tanshinone IIA sulfonate], the “efficacy in ovariectomiced mice” value in data set [10] is “showed efficacy”. Moreover, the IC50 in data set [9] (read-out: IC50 in osteoclast resorption assay) was 0.24 µM.
